# Experiments:
# [1] = system: acetic acid-induced abdominal constriction; test: Acetic acid-induced writhing (Koster) test; type: in vivo, mice; conditions: for Writhing test (% inh.) / Writhing test (Mean ± SEM): 100 mg/kg oral; for Writhing test (Mean ± SEM): writhings counted 10 min from 5 min after acetic acid; for analgesic activity (in words): 100 mg/kg
# Protocol: Test samples, suspended in a mixture of distilled water and 0.5% sodium carboxymethyl cellulose (CMC), were given orally to the animals. The control group animals received the same experimental handling as those of the test groups, except that the drug treatment was replaced with appropriate volumes of the dosing vehicle. […] One hour after oral administration of test sample, each mouse was injected intraperitoneally with 3% (w/v) acetic acid solution (0.1 mL/10 g, bw). Starting 5 min after the acetic acid injection, the number of muscular contractions on mice were counted for a period of 10 min. A significant reduction in the number of writhings by any treatment as compared to the number of writhings in control animals was considered a positive analgesic response. The analgesic activity was expressed as a percentage change from writhing controls. ASA was used as a reference compound and administered at 200 mg/kg.
# [2] = system: lipid peroxidation in stomach; test: Lipid peroxidation in stomach (TBARS); type: in vivo, mice; conditions: 100 mg/kg, 8 h after analgesic test
# [3] = molecular target: T1, HCV NS5B RNA dependent RNA polymerase (Hepatitis C virus genotype 1b, UniProt P26663); test: NS5B inhibition assay (primer dependent elongation, poly rA-U12); type: biochemical; conditions: read-out: Anti-NS5B Activity (% Inh., 100 µM)
# T1 construct: HCV NS5B RNA dependent RNA polymerase activity
# Protocol: The compounds 1a–e and 2a–e were reconstituted in DMSO as 50 mM stocks, and serially diluted in DMSO to obtain working stocks. Wedelolactone, a known inhibitor of HCV NS5B activity, was employed as a reference compound. Preliminary screening was carried out at 100 μM to identify a wider range of compounds.
# All synthesized compounds were evaluated for their effect on HCV NS5B RNA dependent RNA polymerase activity in primer dependent elongation assays as previously described. Activity of NS5B in the absence of the inhibitor but containing an equivalent amount of DMSO (control reaction) was set at 100% and that in the presence of the inhibitor was quantified relative to this control.
# [4] = system: stomach; test: Gastric-ulcerogenic effect (ulcer score); type: in vivo, mice; conditions: 200 mg/kg p.o.; animals with lesions/animals
# [5] = system: carrageenan-induced hind paw edema; test: Carrageenan-induced hind paw edema model; type: in vivo, mice; conditions: for anti-inflammatory activity (in words): all doses, all measurement intervals
# Protocol: Locally bred balb/c mice of both sexes (30-35 g) were purchased from the animal breeding laboratories of Inonu University ([…], Turkey). The animals were fed a standard pellet diet and water ad libitum in a temperature-controlled room. On the day before the treatments, food was withdrawn, but the animals were allowed free access of water. The allocation of animals to different groups was randomized, and the experiments were carried out under blind conditions. Mice used in the present study were cared for in accordance with the directory of the Inonu University Animal Care Unit, which applies the guidelines of the National Institutes of Health on laboratory animal welfare. Procedures involving animals and their care were conducted in conformity with international laws and policies and animal studies accepted by Inonu University Ethical Council (2011/A17). Test samples, suspended in a mixture of distilled water and 0.5% sodium carboxymethyl cellulose (CMC), were given orally to the animals. The control group animals received the same experimental handling as those of the test groups, except that the drug treatment was replaced with appropriate volumes of the dosing vehicle. […] For the preliminary activity screening, each test group was composed of four mice. […] Because of the daily changing circumstance, we used another control group for each experiment. For the determination of the effects on carrageenan-induced paw oedema, the modified method of Kasahara et al. was employed. One hour after the oral administration of either test sample or dosing vehicle, each mouse was injected with a freshly prepared (0.5 mg/25 μL) suspension of carrageenan (Sigma, St. Louis, MO, USA) in physiological saline (154 mM NaCl). The subplantar tissue of the right hind paw was the injection site for all mice. The contralateral paw (left hind paw) was injected with 25 μL saline solution as the internal control. […] The difference in footpad thickness between the right and left foot indicated the degree of inflammation for each mouse. The change in paw volume, either increase or decrease, was calculated and compared with the control group (dosing vehicle) and analyzed using statistical methods.
# T1 sequence (P26663 2420-3010): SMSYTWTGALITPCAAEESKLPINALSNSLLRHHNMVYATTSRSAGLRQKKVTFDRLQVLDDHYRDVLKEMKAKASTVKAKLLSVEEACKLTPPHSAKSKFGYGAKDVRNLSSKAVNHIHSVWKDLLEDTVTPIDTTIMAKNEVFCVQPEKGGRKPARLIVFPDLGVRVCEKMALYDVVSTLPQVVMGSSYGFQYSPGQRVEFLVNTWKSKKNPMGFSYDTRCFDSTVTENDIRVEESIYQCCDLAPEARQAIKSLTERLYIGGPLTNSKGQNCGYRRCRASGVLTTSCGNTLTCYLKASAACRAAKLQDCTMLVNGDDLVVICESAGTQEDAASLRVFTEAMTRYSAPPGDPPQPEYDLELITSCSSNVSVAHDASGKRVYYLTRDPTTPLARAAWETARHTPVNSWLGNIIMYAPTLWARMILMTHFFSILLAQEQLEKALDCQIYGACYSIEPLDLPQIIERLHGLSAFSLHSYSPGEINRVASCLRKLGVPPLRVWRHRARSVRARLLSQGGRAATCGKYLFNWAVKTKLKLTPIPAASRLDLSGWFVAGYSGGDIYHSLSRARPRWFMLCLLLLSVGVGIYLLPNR
melting point [°C],Lipid peroxidation [2] [nmol TBARS/g wet weight],inhibition at 100 µM [3] [%],SMILES,Writhing test (% inh.) [1] [%],Writhing test (Mean ± SEM) [1],Ulcer score [4],"Swelling in thickness ± SEM ([5]; 50 mg/kg per os, 90 min)","percent inhibitory activity ([5]; 50 mg/kg per os, 90 min) [%]","Swelling in thickness ± SEM ([5]; 50 mg/kg per os, 180 min)","percent inhibitory activity ([5]; 50 mg/kg per os, 180 min) [%]","Swelling in thickness ± SEM ([5]; 50 mg/kg per os, 270 min)","percent inhibitory activity ([5]; 50 mg/kg per os, 270 min) [%]","Swelling in thickness ± SEM ([5]; 50 mg/kg per os, 360 min)","percent inhibitory activity ([5]; 50 mg/kg per os, 360 min) [%]","Swelling in thickness ± SEM ([5]; 100 mg/kg per os, 90 min)","Swelling in thickness ± SEM ([5]; 100 mg/kg per os, 180 min)","Swelling in thickness ± SEM ([5]; 100 mg/kg per os, 270 min)","percent inhibitory activity ([5]; 100 mg/kg per os, 270 min) [%]","Swelling in thickness ± SEM ([5]; 100 mg/kg per os, 360 min)","percent inhibitory activity ([5]; 100 mg/kg per os, 360 min) [%]",also measured
228 to 231,406.9 ± 27.0,14.6,Cc1ccc(-c2cc(C(F)(F)F)nn2-c2ccc(S(=O)(=O)NC(=S)Nc3ccc(C(F)(F)F)cc3)cc2)cc1 [Compound 1e],−37.9,24.0 ± 3.0,0/5,47.0 ± 3.3 × 10^−2 mm,34.7,57.0 ± 6.2 × 10^−2 mm,38.0,92.0 ± 1.2 × 10^−2 mm,23.9,106.0 ± 6.7 × 10^−2 mm,17.8,88.4 ± 2.6 × 10^−2 mm,83.9 ± 3.4 × 10^−2 mm,88.7 ± 11.4 × 10^−2 mm,26.7,83.4 ± 9.6 × 10^−2 mm,35.4,"percent inhibitory activity ([5]; 100 mg/kg per os, 180 min): 8.8%; Swelling in thickness ± SEM ([5]; 200 mg/kg per os, 90 min): 76.9 ± 5.7 × 10^−2 mm; Swelling in thickness ± SEM ([5]; 200 mg/kg per os, 180 min): 83.0 ± 6.8 × 10^−2 mm; Swelling in thickness ± SEM ([5]; 200 mg/kg per os, 270 min): 110.5 ± 7.5 × 10^−2 mm; Swelling in thickness ± SEM ([5]; 200 mg/kg per os, 360 min): 103.7 ± 5.2 × 10^−2 mm; percent inhibitory activity ([5]; 200 mg/kg per os, 360 min): 19.6%; anti-inflammatory activity (in words) [5]: moderate-to-good"
250,330.4 ± 9.7,19.4,"Cc1ccc(-c2cc(C(F)(F)F)nn2-c2ccc(S(=O)(=O)/N=C3\SCC(=O)N3Cc3ccccc3)cc2)cc1 [Compound 2c, N-(3-Benzyl-4-oxo-1,3-thiazolidin-2-yldene)-4-[5-(4-methylphenyl)-3-(trifluoromethyl)-1H-pyrazol-1-yl]benzenesulfonamide]",32.2,11.8 ± 1.4,0/5,65.0 ± 6.1 × 10^−2 mm,9.7,74.0 ± 8.8 × 10^−2 mm,19.5,95.0 ± 10.0 × 10^−2 mm,21.4,110.0 ± 7.1 × 10^−2 mm,14.7,83.4 ± 8.7 × 10^−2 mm,90.6 ± 11.7 × 10^−2 mm,91.7 ± 16.7 × 10^−2 mm,24.2,118.2 ± 7.1 × 10^−2 mm,8.3,"analgesic activity (in words) [1]: not statistically significant; Swelling in thickness ± SEM ([5]; 200 mg/kg per os, 90 min): 69.5 ± 8.3 × 10^−2 mm; percent inhibitory activity ([5]; 200 mg/kg per os, 90 min): 3.4%; Swelling in thickness ± SEM ([5]; 200 mg/kg per os, 180 min): 75.6 ± 8.3 × 10^−2 mm; percent inhibitory activity ([5]; 200 mg/kg per os, 180 min): 17.8%; Swelling in thickness ± SEM ([5]; 200 mg/kg per os, 270 min): 133.2 ± 14.3 × 10^−2 mm; Swelling in thickness ± SEM ([5]; 200 mg/kg per os, 360 min): 120.1 ± 5.3 × 10^−2 mm; percent inhibitory activity ([5]; 200 mg/kg per os, 360 min): 6.9%"
270 to 272,350.2 ± 9.9,31.3,"Cc1ccc(-c2cc(C(F)(F)F)nn2-c2ccc(S(=O)(=O)/N=C3\SCC(=O)N3c3ccc([N+](=O)[O-])cc3)cc2)cc1 [Compound 2d, N-[3-(4-Nitrophenyl)-4-oxo-1,3-thiazolidin-2-yldene)-4-[5-(4-methylphenyl)-3-(trifluoromethyl)-1H-pyrazol-1-yl]benzenesulfonamide]",31,12.0 ± 2.6,0/5,47.0 ± 3.3 × 10^−2 mm,34.7,47.0 ± 3.7 × 10^−2 mm,48.9,89.0 ± 6.5 × 10^−2 mm,26.4,110.0 ± 6.7 × 10^−2 mm,14.7,73.2 ± 11.1 × 10^−2 mm,100.6 ± 5.8 × 10^−2 mm,98.2 ± 16.7 × 10^−2 mm,21.6,120.9 ± 9.3 × 10^−2 mm,6.3,"analgesic activity (in words) [1]: not statistically significant; Swelling in thickness ± SEM ([5]; 200 mg/kg per os, 90 min): 80.6 ± 9.4 × 10^−2 mm; Swelling in thickness ± SEM ([5]; 200 mg/kg per os, 180 min): 86.0 ± 9.4 × 10^−2 mm; percent inhibitory activity ([5]; 200 mg/kg per os, 180 min): 6.5%; Swelling in thickness ± SEM ([5]; 200 mg/kg per os, 360 min): 108.6 ± 5.6 × 10^−2 mm; percent inhibitory activity ([5]; 200 mg/kg per os, 360 min): 15.8%; anti-inflammatory activity (in words) [5]: moderate-to-good"

# Reference: PMC6269910 (Molecules, 2013)
